Test results: patent publication US20190300882A1, “METHODS OF TREATING NEUROBLASTOMA AND REAGENTS THEREFOR” (GARVAN INSTITUTE OF MEDICAL RESEARCH, priority 2016, published 2019)

Key:
Type in all cases: cell-based
KELLY cells [1] = assay: Secondary validation screen of lethal miRNAs, cell viability; conditions: miRNA mimic alone
Protocol: (§1) Each of the cell lines were reverse transfected in 384-well plate format with 25 nM of a miRNA from the Dharmacon miRNA mimic or inhibitor libraries (version 16.0) using liquid-handling robot Calliper Sciclone ALH3000 according to the conditions described in Table 3. After 24 hours, media was changed using BioTek 406, and 144 hours post-transfection, cell viability was determined using CellTiter-Glo luminescent assay (Promega) at 1:2 dilution. Luminescence measurements were taken on the Synergy H4 high-throughput multimode microplate reader. All screens were performed in duplicates.
(§2) The secondary validation screens were performed in accordance with the genome-wide screens described in Example 1 and Example 2, respectively, with the exception that an additional MYCN-amplified neuroblastoma cell line (SK-N-DZ) was added to each screen.
(§3) Furthermore, five additional non-active miRNAs discovered to have no measureable effect across all treatment groups of the genome-wide screen (‘non-lethal’ miRNAs) were included as negative controls.

SHEP cells [2] = assay: as above; conditions: miRNA mimic alone
Protocol: as §1, §2, §3

KELLY cells [3] = assay: Primary functional miRNA mimic screen, CellTiter-Glo cell viability; conditions: miRNA mimic 25 nM alone, 144 hours post-transfection
Description: Breast cancer cell lines (MDA-MB-231, MDA-MB-468, SK-BR-3; BT474) and prostate cancer cell lines (PC3, DU145) were obtained from American Type Culture Collection (ATCC). Neuroblastoma cell lines (KELLY, SHEP) were received from Children's Cancer Institute (CCIA). The KELLY cells were selected as a MYCN amplified neuroblastoma cell line and the SHEP cells were selected as a MYCN wild-type neuroblastoma cell line. All breast and prostate cancer cell lines were cultivated in RPMI media supplemented with 10% FCS, HEPES, and insulin. […] Each of the cell lines were reverse transfected in 384-well plate format with 25 nM of a miRNA from the Dharmacon miRNA mimic or inhibitor libraries (version 16.0) using liquid-handling robot Calliper Sciclone ALH3000 according to the conditions described in Table 3. […] Luminescence measurements were taken on the Synergy H4 high-throughput multimode microplate reader. All screens were performed in duplicates. Raw viability was normalised to a nontargeting control (OTP) or mock wells, and death genes or controls inducing varying levels of death were used to monitor transfection efficiency and to define dynamic range in each screen (FIG. 1). To define screen hits, normalised viability scores were binned in the following manner: CV1 bin included candidates with viability >=0.8; […] Only LC candidates were defined as screen hits.

SHEP cells [4] = assay: as above; conditions: miRNA mimic 25 nM alone, 144 hours post-transfection
Description: Breast cancer cell lines (MDA-MB-231, MDA-MB-468, SK-BR-3; BT474) and prostate cancer cell lines (PC3, DU145) were obtained from American Type Culture Collection (ATCC). Neuroblastoma cell lines (KELLY, SHEP) were received from Children's Cancer Institute (CCIA). The KELLY cells were selected as a MYCN amplified neuroblastoma cell line and the SHEP cells were selected as a MYCN wild-type neuroblastoma cell line.
All breast and prostate cancer cell lines were cultivated in RPMI media supplemented with 10% FCS, HEPES, and insulin. The neuroblastoma cell lines, KELLY, SHEP, were grown in 10% FCS/RPMI and 10% FCS/DMEM, respectively.
as §1
Raw viability was normalised to a nontargeting control (OTP) or mock wells, and death genes or controls inducing varying levels of death were used to monitor transfection efficiency and to define dynamic range in each screen (FIG. 1). To define screen hits, normalised viability scores were binned in the following manner: CV1 bin included candidates with viability >=0.8; CV2 bin included candidates with viability <0.8 and >0.5, and LC bin was assigned to candidates with normalised viability <=0.5. Only LC candidates were defined as screen hits.

RGS16 mRNA = assay: qPCR of target mRNA in KELLY cells transfected with miRNA mimic; conditions: 25 nM mimic, 96 h after transfection
Protocol: (§4) KELLY cells were transfected with let-7b-5p, miR-101-3p, and miR-202-3p mimics and real-time PCR performed to determine any changes in mRNA expression levels of HAND1, RGS16, RBFOX2, and ACVR2B. Briefly, KELLY cells were grown in 10% FCS/RPMI and transfected with 25 nM of let-7b-5p, miR-101-3p or miR-202-3p mimic using Dharmafect 1 (DF1) transfection reagent. 96 h after transfection, the cells were harvested and total RNA was extracted using miRneasy kit (Qiagen). RNA was then subjected to reverse transcription to generate cDNA. Quantification of gene expression was then performed using qPCR and Taqman probes and primers for HAND1, RGS 16, RBFOX2, and ACVR2B. The levels of gene expression for HAND1, RGS16, RBFOX2, and ACVR2B were normalised to the housekeeping genes B2M and GAPDH

RBFOX2 mRNA = assay: as above; conditions: 25 nM mimic, 96 h after transfection
Protocol: as §4

[5] = test system: SK-N-DZ MYCN-amplified neuroblastoma cell line; assay: Secondary validation screen of lethal miRNAs, additional cell line, cell viability; conditions: miRNA mimic alone
Protocol: as §1, §2, §3

Row | Substance | Secondary screen Viability (% of control) KELLY (KELLY cells [1]) | Secondary screen Viability (% of control) SHEP (SHEP cells [2]) | Primary screen Viability (% of control) KELLY (KELLY cells [3]) | Primary screen Viability (% of control) SHEP (SHEP cells [4]) | RGS16 mRNA levels (RGS16 mRNA) | RBFOX2 mRNA levels (RBFOX2 mRNA) | Additional cell line Viability (% of control) SKNDZ [5]
1 | hsa-miR-101-3p (UACAGUACUGUGAUAACUGAA; chemistry not given here; listed as Homo sapiens) | 7 % of control | 69 % of control | 6 % of control | 58 % of control | did not affect | did not affect | 72 % of control
2 | hsa-miR-517c-3p (guide AUCGUGCAUCCUUUUAGAGUGU; chemistry not given here; listed as Homo sapiens) | 27 % of control | 43 % of control | 26 % of control | 40 % of control |  |  | 21 % of control
3 | hsa-miR-654-5p (guide UGGUGGGCCGCAGAACAUGUGC; chemistry not given here; listed as Homo sapiens) | 7 % of control | 45 % of control | 6 % of control | 30 % of control |  |  | 28 % of control
4 | hsa-miR-148b-5p (AAGUUCUGUUAUACACUCAGGC; chemistry not given here; listed as Homo sapiens) | 8 % of control | 34 % of control | 5 % of control | 20 % of control |  |  | 21 % of control
5 | hsa-miR-892b (guide CACUGGCUCCUUUCUGGGUAGA; chemistry not given here; listed as Homo sapiens) | 3 % of control | 34 % of control | 5 % of control | 30 % of control |  |  | 54 % of control
6 | hsa-miR-1231 (GUGUCUGGGCGGACAGCUGC; chemistry not given here; listed as Homo sapiens) | 48 % of control | 46 % of control | 36 % of control | 15 % of control |  |  | 98 % of control
7 | hsa-miR-1262 (AUGGGUGAAUUUGUAGAAGGAU; chemistry not given here; listed as Homo sapiens) | 8 % of control | 42 % of control | 8 % of control | 31 % of control |  |  | 13 % of control
